Measured values from patent US20050170485A1, “Culture having phenol oxidase-like activity” (priority 2002, published 2005).

Assays:
Type in all cases: biochemical
[1] = test system: laccase from Japanese lacquer; assay: Direct oxidation reaction by laccase (comparison); conditions: reaction pH 7.0; 2-chloro 1,4-phenylenediamine = 100
Experimental: (§1) Next, 20 μl of the above-mentioned culture solution was added to the resulting mixture. A change in absorbance at 490 nm, 450 nm or 405 nm was determined for the resulting product, depending on the substrate. Here, 1 U (unit) of the activity regarding the direct oxidative reaction was defined as an amount for increasing the absorbance by 1 per one minute.
(§2) In addition, for the comparison, the substrate specificities at pH 7.0 for laccase from Japanese lacquer and bilirubin oxidase from the strain belonging to the genus Myrothecium were also examined in the same manner.

[2] = test system: culture of Flammulina velutipes strain IFO 30601; assay: Direct oxidation reaction by the culture; conditions: for Relative Activity, Culture (direct oxidation): reaction pH 7.0, 2-chloro 1,4-phenylenediamine = 100; for activity of the culture compared with bilirubin oxidase from the genus Myrothecium, direct oxidation / activity of the culture compared with laccase from Japanese lacquer, direct oxidation: pH 7.0, relative activities of Table 7; for activity of the culture for the substrate in words, direct oxidation reaction: pH 7.0
Experimental: Further, the direct oxidation reaction of the culture obtained in the above-mentioned example was determined by using color development due to oxidative polymerization of a substrate generated by the direct action of the culture of the present invention on the substrate as an index.
As the substrates, there were used diaminophenolic compounds (2-chloro 1,4-phenylenediamine, p-phenylenediamine, 2,5-diaminotoluene, N-phenyl-p-phenylenediamine, toluylene-3,4-diamine, m-phenylenediamine), aminophenolic compounds (o-aminophenol, m-aminophenol, 5-amino-o-cresol, p-aminophenol, p-methylaminophenol), and phenolic compounds (2,6-dimethoxyphenol, catechol, resorcinol, hydroquinone, pyrogallol, gallic acid, propyl gallate, 1-naphthol, […], 2,3,4-trihydroxybenzophenone, 2,3,4,4-tetrahydroxybenzophenone). As to a substrate hardly soluble in water, there was used one obtained by dissolving the substrate in a small amount of dimethyl sulfoxide and diluting the resulting solution with deionized distilled water to a desired concentration. In Table 6, %” indicates volume/volume %.
as §1, with “Concretely, 180 μl of 0.89 mM sodium phosphate buffer (pH 7.0) containing […] substrate was pre-incubated in wells of a 96-well microplate [manufactured by Corning, Costor (registered trademark) 3368] at 25° C. for 1 minute. Next,” for “Next,”

[3] = target: T1, bilirubin oxidase from the strain belonging to the genus Myrothecium (Albifimbria verrucaria, UniProt Q12737); assay: Direct oxidation reaction by bilirubin oxidase (comparison); parameters: concentration or dose not given beside the values; conditions: reaction pH 7.0; 2-chloro 1,4-phenylenediamine = 100
T1 sequence (Q12737 39-572): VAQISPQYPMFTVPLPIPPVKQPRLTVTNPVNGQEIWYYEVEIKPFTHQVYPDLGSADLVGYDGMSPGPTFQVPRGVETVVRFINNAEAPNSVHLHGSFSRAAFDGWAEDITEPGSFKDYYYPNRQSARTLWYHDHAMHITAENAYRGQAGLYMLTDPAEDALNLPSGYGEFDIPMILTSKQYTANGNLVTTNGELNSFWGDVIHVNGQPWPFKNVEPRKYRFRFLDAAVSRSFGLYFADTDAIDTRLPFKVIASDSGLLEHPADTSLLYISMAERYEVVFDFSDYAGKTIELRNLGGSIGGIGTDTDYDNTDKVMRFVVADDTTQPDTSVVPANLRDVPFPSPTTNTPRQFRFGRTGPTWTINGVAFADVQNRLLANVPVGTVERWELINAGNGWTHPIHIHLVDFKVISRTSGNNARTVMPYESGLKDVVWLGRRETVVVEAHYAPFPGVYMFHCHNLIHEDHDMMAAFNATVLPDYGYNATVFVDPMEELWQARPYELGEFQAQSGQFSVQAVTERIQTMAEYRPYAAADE
Experimental: as §1, with “Concretely, 180 μl of 0.89 mM sodium phosphate buffer (pH 7.0) containing […] substrate was pre-incubated in wells of a 96-well microplate [manufactured by Corning, Costor (registered trademark) 3368] at 25° C. for 1 minute. Next,” for “Next,”
as §2
The relative activity (%) for each substrate is shown in Table 7, in which the measured value for a case where a representative chemical dye 2-chloro 1,4-phenylenediamine was used as a substrate is 100.

[4] = test system: culture of Flammulina velutipes strain IFO 30601; assay: Oxidative coupling reaction with 4-aminoantipyrine by the culture; conditions: for activity of the culture for the substrate in words, oxidative coupling reaction: pH 7.0; for Specific Activity, Culture (oxidative coupling with 4-aminoantipyrine): reaction pH 7.0, 25° C., substrate 2.0 mM
Experimental: Next, the oxidative coupling reaction of the culture obtained in (2) in Example 1 mentioned above was determined by using color development as an index by the oxidative condensation of the substrate (hydrogen donor) with 4-aminoantipyrine, catalyzed by the culture of the present invention.
As the hydrogen donors, there were used phenolic compounds (phenol, 2-methoxyphenol, 2,6-dimethoxyphenol, catechol, resorcinol, hydroquinone, pyrogallol, gallic acid, propyl gallate, 1-naphthol, catechin), aminophenolic compounds (o-aminophenol, m-aminophenol, p-aminophenol), diaminophenolic compounds (o-phenylenediamine, m-phenylenediamine, p-phenylenediamine), and heterocyclic compounds (5-hydroxyindole, 2,6-diaminopyridine).
The above-mentioned culture solution was added to a reaction system containing 4-aminoantipyrine and an optional hydrogen donor. Thereafter, the activity of the culture of the present invention was assayed by determining a change in absorbance at 490 nm for the phenolic compound, the diaminophenolic compound and the heterocyclic compound, or determining a change in absorbance at 450 nm for the aminophenolic compound. As to a substrate hardly soluble in water, there was used one obtained by dissolving the substrate in a small amount of dimethyl sulfoxide and diluting the resulting solution with deionized water to a desired concentration. In Table 4, DMSO is an abbreviation for dimethyl sulfoxide.
(§3) Concretely, 190 μl of 105.3 mM phosphate buffer (pH 7.0) containing 0.4 μmol of a substrate and 4.0 μmol of 4-aminoantipyrine was pre-incubated in wells of a 96-well microplate [manufactured by Corning, Costor (registered trademark) 3368] at 25° C. for 1 minute. Next, 10 μl of the above-mentioned culture solution was added to the resulting mixture, and thereafter, the mixture was incubated for 1 hour. A change in absorbance at 490 nm or 450 nm was determined for the resulting product. One unit (U) of the activity regarding the oxidative coupling reaction was defined as an amount for increasing the absorbance by 1 per one minute.

[5] = target: T2, bilirubin oxidase from the strain of the genus Myrothecium (Albifimbria verrucaria, UniProt Q12737); assay: Oxidative coupling reaction with 4-aminoantipyrine by bilirubin oxidase (comparison); conditions: reaction pH 8.0, substrate 2.0 mM
T2 sequence (Q12737 39-572): T1 sequence (Q12737 39-572)
Experimental: as §3
In addition, for the comparison, the examination was made in the same manner for bilirubin oxidase from the strain of the genus Myrothecium except that the above-mentioned buffer was replaced with 105.3 mM Tris-HCl buffer (pH 8.0).

Compound	Relative Activity, Laccase from Japanese Lacquer (direct oxidation) [1]	Relative Activity, Culture (direct oxidation) [2]	Relative Activity, Bilirubin Oxidase from Strain Belonging to Genus Myrothecium (direct oxidation) [3]	activity of the culture compared with bilirubin oxidase from the genus Myrothecium, direct oxidation [2]	activity of the culture for the substrate in words, oxidative coupling reaction [4]	Specific Activity, Culture (oxidative coupling with 4-aminoantipyrine) [4]	Specific Activity, Bilirubin Oxidase from Strain Belonging to Genus Myrothecium (oxidative coupling with 4-aminoantipyrine) [5]	activity of the culture for the substrate in words, direct oxidation reaction [2]	activity of the culture compared with laccase from Japanese lacquer, direct oxidation [2]	activity of the culture for the substrate in words, direct oxidation reaction ([2]; listed as 2,3,4,4-tetrahydrobenzophenone)
C1=CCC2=CC=CCC2=C1 [1,5-Dihydronaphthalene]	47%	63%	69%	–	–	–	–	–	–	–
Oc1cccc2ccccc12 [1-Naphthol]	17%	17%	50%	even higher activity	especially high activity	18.1 U/mg Protein	33.0 U/mg Protein	–	–	–
O=C(c1ccc(O)cc1)c1ccc(O)c(O)c1O [2,3,4,4-Tetrahydroxybenzophenone]	179%	571%	52%	even higher activity	–	–	–	high activity	higher activity	especially high activity
O=C(c1ccccc1)c1ccc(O)c(O)c1O [2,3,4-Trihydroxybenzophenone]	175%	537%	62%	even higher activity	–	–	–	especially high activity	higher activity	–
Cc1cc(N)ccc1N [2,5-Diaminotoluene]	44%	80%	24%	higher activity	–	–	–	–	–	–
Nc1cccc(N)n1 [2,6-Diaminopyridine]	–	–	–	–	high activity	37.7 U/mg Protein	2.3 U/mg Protein	–	–	–
Nc1ccc(N)c(Cl)c1 [2-Chloro 1,4-phenylenediamine]	100%	100%	100%	–	–	–	–	–	–	–
Cc1ccc(N)cc1O [5-Amino-o-cresol]	1%	117%	19%	even higher activity	–	–	–	–	even higher activity	–
Oc1ccc2[nH]ccc2c1 [5-Hydroxyindole]	–	–	–	–	–	4.7 U/mg Protein	1.9 U/mg Protein	–	–	–
O=C(O)c1cc(O)c(O)c(O)c1 [Gallic acid]	9%	65%	88%	–	–	0.9 U/mg Protein	14.9 U/mg Protein	–	even higher activity	–
Oc1ccc(O)cc1 [Hydroquinone]	2%	20%	4%	even higher activity	–	2.1 U/mg Protein	0.5 U/mg Protein	–	even higher activity	–
Nc1ccc(Nc2ccccc2)cc1 [N-Phenyl-p-phenylenediamine]	94%	174%	102%	–	–	–	–	especially high activity	–	–
Oc1ccccc1 [Phenol]	–	–	–	–	–	8.1 U/mg Protein	0.9 U/mg Protein	–	–	–
Cc1ccc(N)c(N)c1 [Toluylene-3,4-diamine]	61%	120%	45%	higher activity	–	–	–	–	–	–
Nc1ccccc1N [o-Phenylenediamine]	–	–	–	–	–	15.1 U/mg Protein	4.5 U/mg Protein	–	–	–
CNc1ccc(O)cc1 [p-Methylaminophenol]	308%	304%	122%	higher activity	–	–	–	especially high activity	–	–
Catechin	–	–	–	–	especially high activity	14.0 U/mg Protein	4.6 U/mg Protein	–	–	–
